# Source: ChEMBL document CHEMBL3885881, “DrugMatrix”
# Species on record: Rattus norvegicus
# Test: DrugMatrix - Regimen: Daily Repeat
# Assay type: toxicity, organism-based, Sprague-Dawley
# Design: regimen Daily Repeat, gender Male, age 6-8 weeks
# Conditions: in vivo, sc, route subcutaneous, […]; for ABSOLUTE BASOPHIL / ABSOLUTE EOSINOPHIL / ABSOLUTE LYMPHOCYTE / ABSOLUTE MONOCYTE / ABSOLUTE SEGMENTED NEUTROPHIL / BASOPHIL / EOSINOPHIL / ERYTHROCYTE COUNT / HEMATOCRIT / HEMOGLOBIN / LEUKOCYTE COUNT / LYMPHOCYTE / MEAN CORPUSCULAR HEMOGLOBIN / MEAN CORPUSCULAR HEMOGLOBIN CONCENTRATION / MEAN CORPUSCULAR VOLUME / MONOCYTE / NEUTROPHIL / NUCLEATED RED BLOOD CELLS / PLATELET COUNT: tissue Blood; for ALANINE AMINOTRANSFERASE / ALBUMIN / ALKALINE PHOSPHATASE / ASPARTATE AMINOTRANSFERASE / BLOOD UREA NITROGEN / CARBON DIOXIDE / CHLORIDE / CHOLESTEROL / CREATINE PHOSPHOKINASE / CREATININE / GLUCOSE / LACTATE DEHYDROGENASE / LIPASE / PHOSPHORUS / POTASSIUM / SODIUM / TOTAL BILIRUBIN / TOTAL PROTEIN / URIC ACID: tissue Plasma
# [1] = 0 mg/kg, 72 h, dose level Control, time 3 day
# [2] = 0 mg/kg, 120 h, dose level Control, time 5 day
# [3] = 56 mg/kg, 72 h, dose level High, time 3 day
smiles,measurement,setting,value
C[C@]12CCC(=O)C=C1CC[C@@H]1[C@@H]2[C@@H](O)C[C@@]2(C)[C@H]1CC[C@]2(O)C(=O)CO [HYDROCORTISONE],ABSOLUTE BASOPHIL,[1],0 CELLS/uL
same,ABSOLUTE EOSINOPHIL,[1],0 CELLS/uL
same,ABSOLUTE LYMPHOCYTE,[1],10887 CELLS/uL
same,ABSOLUTE MONOCYTE,[1],56 CELLS/uL
same,ABSOLUTE SEGMENTED NEUTROPHIL,[1],1057 CELLS/uL
same,BASOPHIL,[1],0%
same,EOSINOPHIL,[1],0%
same,ERYTHROCYTE COUNT,[1],5.31 x10E6/uL
same,HEMATOCRIT,[1],33.78%
same,HEMOGLOBIN,[1],13.4 G/DL
same,LEUKOCYTE COUNT,[1],12 x10E3/uL
same,LYMPHOCYTE,[1],91.17%
same,MEAN CORPUSCULAR HEMOGLOBIN,[1],25.25 pg
same,MEAN CORPUSCULAR HEMOGLOBIN CONCENTRATION,[1],39.65 G/DL
same,MEAN CORPUSCULAR VOLUME,[1],63.65 fL
same,MONOCYTE,[1],0.5%
same,NEUTROPHIL,[1],8.33%
same,NUCLEATED RED BLOOD CELLS,[1],0 /100WBC
same,PLATELET COUNT,[1],1142 x10E3/uL
same,ALANINE AMINOTRANSFERASE,[1],57.17 u/L
same,ALBUMIN,[1],4.28 G/DL
same,ALKALINE PHOSPHATASE,[1],425.83 u/L
same,ASPARTATE AMINOTRANSFERASE,[1],93.83 u/L
same,BLOOD UREA NITROGEN,[1],14.17 mg/dL
same,CARBON DIOXIDE,[1],33.5 mmol/L
same,CHLORIDE,[1],100 MEQ/L
same,CHOLESTEROL,[1],70.33 mg/dL
same,CREATINE PHOSPHOKINASE,[1],438.67 u/L
same,CREATININE,[1],0.19 mg/dL
same,GLUCOSE,[1],138.5 mg/dL
same,LACTATE DEHYDROGENASE,[1],190.17 u/L
same,LIPASE,[1],9.83 u/L
same,PHOSPHORUS,[1],11.05 mg/dL
same,POTASSIUM,[1],6.59 MEQ/L
same,SODIUM,[1],143.58 MEQ/L
same,TOTAL BILIRUBIN,[1],0.22 mg/dL
same,TOTAL PROTEIN,[1],6.15 G/DL
same,URIC ACID,[1],1.3 mg/dL
same,ABSOLUTE BASOPHIL,[2],0 CELLS/uL
same,ABSOLUTE EOSINOPHIL,[2],91.17 CELLS/uL
same,ABSOLUTE LYMPHOCYTE,[2],11847.67 CELLS/uL
same,ABSOLUTE MONOCYTE,[2],172.83 CELLS/uL
same,ABSOLUTE SEGMENTED NEUTROPHIL,[2],1105 CELLS/uL
same,BASOPHIL,[2],0%
same,EOSINOPHIL,[2],0.67%
same,ERYTHROCYTE COUNT,[2],5.35 x10E6/uL
same,HEMATOCRIT,[2],33.65%
same,HEMOGLOBIN,[2],13.42 G/DL
same,LEUKOCYTE COUNT,[2],13.22 x10E3/uL
same,LYMPHOCYTE,[2],89.83%
same,MEAN CORPUSCULAR HEMOGLOBIN,[2],25.12 pg
same,MEAN CORPUSCULAR HEMOGLOBIN CONCENTRATION,[2],39.9 G/DL
same,MEAN CORPUSCULAR VOLUME,[2],63 fL
same,MONOCYTE,[2],1.33%
same,NEUTROPHIL,[2],8.17%
same,NUCLEATED RED BLOOD CELLS,[2],0 /100WBC
same,PLATELET COUNT,[2],1347.83 x10E3/uL
same,ALANINE AMINOTRANSFERASE,[2],50 u/L
same,ALBUMIN,[2],4.1 G/DL
same,ALKALINE PHOSPHATASE,[2],329.17 u/L
same,ASPARTATE AMINOTRANSFERASE,[2],77.17 u/L
same,BLOOD UREA NITROGEN,[2],16.83 mg/dL
same,CARBON DIOXIDE,[2],34.83 mmol/L
same,CHLORIDE,[2],99.83 MEQ/L
same,CHOLESTEROL,[2],75.67 mg/dL
same,CREATINE PHOSPHOKINASE,[2],295.83 u/L
same,CREATININE,[2],0.18 mg/dL
same,GLUCOSE,[2],156.33 mg/dL
same,LACTATE DEHYDROGENASE,[2],166.83 u/L
same,LIPASE,[2],9.83 u/L
same,PHOSPHORUS,[2],12.18 mg/dL
same,POTASSIUM,[2],6.69 MEQ/L
same,SODIUM,[2],143.97 MEQ/L
same,TOTAL BILIRUBIN,[2],0.22 mg/dL
same,TOTAL PROTEIN,[2],6.05 G/DL
same,URIC ACID,[2],1.6 mg/dL
same,ABSOLUTE BASOPHIL,[3],0 CELLS/uL
same,ABSOLUTE EOSINOPHIL,[3],0 CELLS/uL
same,ABSOLUTE LYMPHOCYTE,[3],1706 CELLS/uL
same,ABSOLUTE MONOCYTE,[3],103.33 CELLS/uL
same,ABSOLUTE SEGMENTED NEUTROPHIL,[3],3357.33 CELLS/uL
same,BASOPHIL,[3],0%
same,EOSINOPHIL,[3],0%
same,ERYTHROCYTE COUNT,[3],5.79 x10E6/uL
same,HEMATOCRIT,[3],37.97%
same,HEMOGLOBIN,[3],14.73 G/DL
same,LEUKOCYTE COUNT,[3],5.17 x10E3/uL
same,LYMPHOCYTE,[3],33.33%
same,MEAN CORPUSCULAR HEMOGLOBIN,[3],25.47 pg
same,MEAN CORPUSCULAR HEMOGLOBIN CONCENTRATION,[3],38.87 G/DL
same,MEAN CORPUSCULAR VOLUME,[3],65.57 fL
same,MONOCYTE,[3],2%
same,NEUTROPHIL,[3],64.67%
same,NUCLEATED RED BLOOD CELLS,[3],0.33 /100WBC
same,PLATELET COUNT,[3],1157.67 x10E3/uL
same,ALANINE AMINOTRANSFERASE,[3],124.33 u/L
same,ALBUMIN,[3],5.07 G/DL
same,ALKALINE PHOSPHATASE,[3],509.67 u/L
same,ASPARTATE AMINOTRANSFERASE,[3],177.33 u/L
same,BLOOD UREA NITROGEN,[3],13.67 mg/dL
same,CARBON DIOXIDE,[3],29 mmol/L
same,CHLORIDE,[3],99 MEQ/L
same,CHOLESTEROL,[3],119.33 mg/dL
same,CREATINE PHOSPHOKINASE,[3],250.33 u/L
same,CREATININE,[3],0.17 mg/dL
same,GLUCOSE,[3],360 mg/dL
same,LACTATE DEHYDROGENASE,[3],443.67 u/L
same,LIPASE,[3],10.67 u/L
same,PHOSPHORUS,[3],10.63 mg/dL
same,POTASSIUM,[3],5.68 MEQ/L
same,SODIUM,[3],144.93 MEQ/L
same,TOTAL BILIRUBIN,[3],0.17 mg/dL
same,TOTAL PROTEIN,[3],6.97 G/DL
same,URIC ACID,[3],1.43 mg/dL
